In patent US6642201B1, “Use of a dipeptide for stimulating repair processes” (priority 1998, dated 2003):
Where a SMILES comes first, the peptide text is derived from it.

Assays:
white outbred male mice = experiment: Acute toxicity according to Kerber, single intramuscular administration; format: in vivo
Experimental: The study of the general toxic activity of dipeptide L-Lys-L-Glu was conducted in compliance with “The rules of pre-clinical estimation of safety of pharmacological Substances (GLP)”—
The purpose of the study consisted of the identification of tolerable toxic doses of the drug, estimation of stage and character of pathological alterations in various organs and systems of the organism and determination of correlation between toxic effect related to dose and duration of drug application.
The estimation of acute toxicity of dipeptide L-Lys-L-Glu was conducted according to Kerber. The study was carried out on 66 white outbred male mice with body weight 20-23 g, kept under standard regimen and fed with standard chow in the vivarium. The animals were divided at random into 6 equal groups of 11 mice each. The animals were exposed to single administration of the drug intramuscularly, 0.25 ml in doses 1 mg/kg, 2 mg/kg, 3 mg/kg, 4 mg/kg, 5 mg/kg, several thousand times exceeding therapeutic dose recommended for clinical trial. Control animals were administered sodium chloride solution in the same amount.

white outbred mice = experiment: Sub-acute toxicity, daily intramuscular administration for 90 days; format: in vivo; conditions: i.m. daily 0.3, 1, 3 mg/kg for 90 days; doses exceeding therapeutic 100-1000 times
Experimental: The study of sub-acute toxicity of L-Lys-L-Glu dipeptide is carried out on 60 white outbred mice with body weight […]. The animals of experimental groups were exposed daily to a single administration of the drug intramuscularly for 90 days in doses 1 mg/kg, 0.3 mg/kg, 3 mg/kg in 0.5 ml of sodium chloride solution. The animals of control groups were administered with sodium chloride solution in the same quantity.
During the whole period of Investigation the animals were under daily control. There was monitored animal behavior, as well as chow and water consumption, condition of hairy and mucous surfaces. The animals were weighed weekly. Morphological composition and properties of peripheral blood were studied prior to and an the 30th, 60th, and 90th day of drug administration. Biochemical and coagulologic indices of the blood were studied upon experiment completion.

rats = experiment: Chronic toxicity, daily intramuscular administration for 6 months; format: in vivo; conditions: i.m. daily 0.3, 1, 3 mg/kg for 6 months
Experimental: Chronic toxicity of L-Lys-L-Glu dipeptide obtained by the claimed method was studied during its longitudinal administration to rats with body weight […]. The animals of experimental groups were exposed daily to single intramuscular administration of the substance in doses 1 mg/kg, 0.3 mg/kg, 3 mg/kg in 0.5 ml of sodium chloride solution for 6 months. There was analyzed animal behavior, as well as chow and water consumption, condition of hairy and of mucous surfaces. The animals were weighed daily during the first 3 months of the experiment and then once a month. In 3 months after the onset of administration and upon completion of the experiment hematological and biochemical examinations functions of cardiovascular system, liver, pancreas. kidney, and adrenal gland were conducted and estimated. Upon the termination of the drug administration some animals were exposed to pathomorphological examination with the purpose of studying the state of various departments of the brain and spinal marrow, heart, aorta, lungs, liver, organs of endocrine and immune systems.

regenerating liver cells = experiment: Compensatory regeneration of the liver after partial hepatectomy; format: in vivo, white outbred male rats
Experimental: The research has been conducted on 26 white outbred male rats weighing 150-200 grams. The animals were divided into thee following groups:
3 group—rats which had undergone the operation and were subsequently (2 and 24 hours after the operation) administered two subcutaneous injections of L-Lys-L-Glu dipeptide (0,1 μkg per rat).
At the same time, the animals of the first and second groups were made injections of the same volume of the […]. The extracted liver was preserved formalin.
The rats, which had been operated on, were killed by means of ether 32 and 96 hours after the operation. The rats from the control group were killed too, simultaneously. Their livers were preserved in formalin. After staining the preparations with hematoxilin-eosin, the mitotic index in the liver cells was defined, as well as the quantity of polyploid cells in the S-phase cell cycle (the quantity of dividing cells).

[1] = test system: inflammation of salivary glands and sialolithic disease; experiment: Clinical treatment of inflammation of salivary glands and sialolithic disease; format: in vivo, patients; conditions: 1 μkg i.m. daily for 5 days
Source text: 45 patients were being observed. Of these, 27 people had inflammations of the salivary glands, 4 of whom had parotitis. 18 people suffered sialolithic disease of the submandibular gland. The average age of the patients was 35-40. All the patients with the sialolithic disease had the stones extracted. 30 patients (15 of them had inflammation of the salivary gland and the other 15 had sialolithic disease) underwent daily intramuscular injections of L-Lys-L-Glu dipeptide 1 μkg. for 5 days.
The patients of the control group underwent standard treatment: antibacterial, desensitization therapy, iodine-dimexid dressings, physical therapy (ultrasonics, 5-10% potassium iodide electrotherapy on the gland area), local treatment (washing the glands with the solution of antiseptics and antibiotics).

[2] = 32 hours After partial hepatectomy, 0,1 μkg per rat s.c. at 2 and 24 hours
[3] = 32 hours group, Before (pre-operation index)
[4] = 96 hours After partial hepatectomy, 0,1 μkg per rat s.c. at 2 and 24 hours
[5] = 96 hours group, Before (pre-operation index)
[6] = patients with sialolithic disease

With `NCCCC[C@H](N)C(=O)N[C@@H](CCC(=O)O)C(=O)O` [L-Lys-L-Glu dipeptide, L-lysil-L-glutamic acid] (H-Lys-Glu-OH) the toxic effects (white outbred male mice; doses several thousand times exceeding the therapeutic) was “does not induce any toxic effects”, the “changes in general state, behavior, locomotor activity, integument, physiological discharges” value (white outbred male mice; mice, single i.m. 1-5 mg/kg, 72 hours and 14 days) was “No changes in the general state, behavior, locomotor activity, hairy or skin integument or physiological discharges” and the animal deaths (white outbred male mice; mice, single i.m. 1-5 mg/kg, in 72 hours and in 14 days) was “none of the animals in either of the groups died”. The “side effects, sub-acute toxicity” value (white outbred mice) was “absence of side effects”, the “side effects, chronic toxicity” value (rats; doses exceeding therapeutic 100-1000 times) was “absence of side effects” and the “pathological changes (general state, blood indices, intrinsic organs, cardio-vascular, respiratory, liver and kidney functions)” value (rats; rats) was “no pathological changes”. The “% of cells in the phase of DNA synthesis” value (regenerating liver cells; [2]) was 3.882 ± 0.8391″ %, the Mitotic index (regenerating liver cells; [2]) was 2.314 ± 0.4611 % and the “Total number of dividing cells” value (regenerating liver cells; [2]) was 6.196 ± 1.279 %. The “increasing number of mitoses, DNA-synthesizing cells and overall amount of dividing cells” value (regenerating liver cells; 32 hours after partial hepatectomy) was “does become trustworthy”, the “% of cells in the phase of DNA synthesis” value (regenerating liver cells; [3]) was 0.870 ± 0.100% and the “Total number of dividing cells” value (regenerating liver cells; [3]) was 1.320 ± 0.159%. For the same molecule, the Mitotic index (regenerating liver cells; 32 hours group, Before (pre-operation index), % of the total number of liver cells) was 0.450 ± 0.067%, the “% of cells in the phase of DNA synthesis” value (regenerating liver cells; [4]) was 4.664 ± 1.315 % and the Mitotic index (regenerating liver cells; [4]) was 4.846 ± 0.334*& %. The “Total number of dividing cells” value (regenerating liver cells; [4]) was 9.510 ± 1.609 %, the “number of cells in the S-phase compared to the second (control) group” value (regenerating liver cells; 96 hours after hepatectomy) was “did not differ reliably” and the “number of dividing cells bigger than with rats injected with the sodium hydrochloride” value (regenerating liver cells; 96 hours after hepatectomy) was 75%. For the same molecule, the “number of mitoses compared to rats injected with the sodium hydrochloride” value (regenerating liver cells; 96 hours after hepatectomy) was “twice as big”, the “% of cells in the phase of DNA synthesis” value (regenerating liver cells; [5]) was 0.982 ± 0.141% and the Mitotic index (regenerating liver cells; [5]) was 0.294 ± 0.084%. The “pains in the gland and discharge of pus” value ([1]; patients with inflammation of the salivary gland) was “on the fourth-fifth day after the treatment, stopped having pains in the gland and the discharge of pus from the gland ducts”, the “discharge of pus from the gland ducts” value [1, 6] was “stopped having the discharge of pus from the gland ducts” and the “swelling and infiltration of soft tissues and mucous membrane of the mouth cavity” value [1, 6] was “resolved on the third fourth day after the operation”. For the same molecule, the period of treatment ([1]; patients) was “shortened the period of treatment”.
